Key:
[1] = Test 10: intracerebral transferability of rats (Kp,uu,brain); type: in vivo, rat; conditions: unbound drug concentration ratio brain/plasma
Procedure: Test 10: Evaluation of Intracerebral Transferability (Test for Intracerebral Transferability of Rats)
In this test, intracerebral transferability of the present compounds was evaluated by the following method. The present compounds were subcutaneously administered as a solution in saline, or orally administered as a suspension in methyl cellulose to 7-week-old SD or WKY rats. Plasma and brain were collected on 0.5 hours, 1 hour, or 2 hours after the administration to measure the drug concentrations in plasma and brain by LC-MS.
Binding rates of the present compound to plasma and brain protein were measured by equilibrium dialysis method.
Kp,uu,brain (unbound drug concentration ratio between brain/plasma) can be calculated by applying the compound concentrations in plasma and brain and the binding rates to plasma and brain protein obtained from the above test into the following formula. Kp,uu,brain=(Compound concentration in brain×(100−Binding rate to brain protein (%))/100)/(Compound concentration in plasma×(100−Binding rate to plasma protein (%))/100)

[2] = target: T1, human 5-HT1A receptor (Homo sapiens (Human), UniProt P08908); assay: Test 1: binding activity for human 5-HT1A receptor ([3H]8-OH-DPAT, CHO cell membrane fraction)
T1 sequence (P08908 whole entry): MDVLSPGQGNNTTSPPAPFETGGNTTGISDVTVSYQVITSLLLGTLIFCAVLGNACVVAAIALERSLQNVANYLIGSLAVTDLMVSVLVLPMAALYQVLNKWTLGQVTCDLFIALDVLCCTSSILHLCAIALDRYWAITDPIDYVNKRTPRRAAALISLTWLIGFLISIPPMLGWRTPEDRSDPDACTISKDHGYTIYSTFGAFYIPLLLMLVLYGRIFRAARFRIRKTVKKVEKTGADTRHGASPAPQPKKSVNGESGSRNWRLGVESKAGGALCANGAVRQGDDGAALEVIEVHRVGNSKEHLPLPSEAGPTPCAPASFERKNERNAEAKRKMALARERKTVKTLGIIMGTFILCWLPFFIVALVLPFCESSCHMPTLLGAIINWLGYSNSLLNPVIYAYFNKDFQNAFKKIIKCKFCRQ
Procedure, shortened: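 Membranes incubated with [3H]8-OH-DPAT and compound for 60 min at room temperature, then filtered on polyethylenimine-coated glass-fibre plates and counted by liquid scintillation. IC50 from Hill analysis; Ki = IC50/(1+S/Kd), Kd from saturation binding on the same membranes.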

[3] = target: hERG channel (Homo sapiens (Human), UniProt Q12809); assay: Test 6-1: inhibitory activity for hERG channel (auto patch clamp, Qpatch); type: cell-based; conditions: whole cell auto patch clamp, hERG-CHO cells; read-out: hERG inhibition IC50
Chain of hERG channel (Q12809 whole entry): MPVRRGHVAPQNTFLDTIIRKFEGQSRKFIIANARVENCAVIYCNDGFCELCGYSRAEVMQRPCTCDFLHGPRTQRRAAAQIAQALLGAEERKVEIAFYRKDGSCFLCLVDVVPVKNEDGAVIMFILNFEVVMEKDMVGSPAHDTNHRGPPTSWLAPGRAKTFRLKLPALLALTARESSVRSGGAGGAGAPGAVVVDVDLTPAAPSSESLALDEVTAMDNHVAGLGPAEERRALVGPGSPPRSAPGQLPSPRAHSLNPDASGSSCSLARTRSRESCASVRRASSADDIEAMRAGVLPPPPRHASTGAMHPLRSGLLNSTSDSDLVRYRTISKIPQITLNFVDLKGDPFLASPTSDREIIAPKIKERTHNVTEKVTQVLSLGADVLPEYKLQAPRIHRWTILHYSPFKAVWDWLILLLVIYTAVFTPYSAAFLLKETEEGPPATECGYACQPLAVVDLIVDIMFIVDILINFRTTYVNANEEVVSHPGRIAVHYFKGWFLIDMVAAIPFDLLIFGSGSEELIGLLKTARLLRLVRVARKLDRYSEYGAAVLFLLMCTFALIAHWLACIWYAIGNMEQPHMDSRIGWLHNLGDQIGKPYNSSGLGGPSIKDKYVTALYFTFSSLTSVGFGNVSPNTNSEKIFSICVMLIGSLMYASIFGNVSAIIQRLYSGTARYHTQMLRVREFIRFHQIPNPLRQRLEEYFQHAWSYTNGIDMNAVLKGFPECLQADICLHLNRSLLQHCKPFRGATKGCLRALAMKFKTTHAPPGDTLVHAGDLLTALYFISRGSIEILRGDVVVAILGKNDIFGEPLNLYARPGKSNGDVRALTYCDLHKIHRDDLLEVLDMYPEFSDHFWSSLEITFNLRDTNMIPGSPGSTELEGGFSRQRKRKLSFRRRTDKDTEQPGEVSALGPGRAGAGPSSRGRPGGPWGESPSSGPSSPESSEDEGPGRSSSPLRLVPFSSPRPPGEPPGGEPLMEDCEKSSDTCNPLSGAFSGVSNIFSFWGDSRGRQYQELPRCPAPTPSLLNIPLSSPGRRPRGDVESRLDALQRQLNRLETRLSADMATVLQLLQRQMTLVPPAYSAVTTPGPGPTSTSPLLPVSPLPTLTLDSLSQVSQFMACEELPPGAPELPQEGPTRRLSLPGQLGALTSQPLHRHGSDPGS
Procedure, shortened: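 Whole-cell patch clamp on an automated system using CHO cells stably expressing human hERG (IKr); 15 s pulse interval. Four increasing compound concentrations applied cumulatively; mean peak tail current from last 3 stimulations per concentration used. IC50 from inhibition versus pre-compound current, fitted by Hill equation.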

[4] = Test 4: metabolic stability test in human hepatic microsome; type: in vitro ADME; conditions: 0.1 mg/mL microsome, 0.1 μmol/L compound, 37° C., 30 minutes
Procedure, shortened: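 LC-MS quantified remaining parent after 30 min, 37° C, in pH 7.4 25 mmol/L phosphate containing 0.1 mg/mL human hepatic microsomes, 3.2 mmol/L NADPH and 0.1 μmol/L test compound. Value given as −LN(residual ratio)/30/0.1, mL/min/mg protein.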

[5] = target: human D2 receptor (Homo sapiens (Human), UniProt P14416); assay: Test 1: binding activity for human D2 receptor ([3H]Spiperone, CHO cell membrane fraction); conditions: human D2 receptor, [3H]Spiperone
Chain of human D2 receptor (P14416 whole entry): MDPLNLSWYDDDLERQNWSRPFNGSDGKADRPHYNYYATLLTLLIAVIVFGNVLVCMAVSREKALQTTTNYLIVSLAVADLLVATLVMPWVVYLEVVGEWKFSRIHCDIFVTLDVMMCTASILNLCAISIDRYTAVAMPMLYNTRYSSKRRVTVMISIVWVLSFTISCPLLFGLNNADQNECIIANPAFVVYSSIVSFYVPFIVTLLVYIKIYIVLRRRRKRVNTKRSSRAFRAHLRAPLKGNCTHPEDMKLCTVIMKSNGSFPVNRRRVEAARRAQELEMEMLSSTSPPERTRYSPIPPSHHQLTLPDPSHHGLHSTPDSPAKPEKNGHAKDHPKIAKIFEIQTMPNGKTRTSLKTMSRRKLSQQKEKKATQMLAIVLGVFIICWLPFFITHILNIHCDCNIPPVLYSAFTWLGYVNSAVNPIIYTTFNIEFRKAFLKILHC
Procedure, shortened: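 Compound displacement of [3H]ketanserin at 5-HT2A or [3H]spiperone at D2 was measured in CHO membrane fractions after 60 min at room temperature, with filtration and scintillation counting. IC50 was converted to Ki by Cheng–Prusoff using ligand concentration and Kd from saturation binding.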

[6] = target: T1, human 5-HT1A receptor; assay: Test 2: agonist activity for human 5-HT1A receptor ([35S]GTPγS binding); type: biochemical
Procedure, shortened: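 [35S]GTPγS binding read-out: after 60 min at room temperature with test compound in GDP buffer, human 5-HT1A receptor CHO membranes were vacuum-filtered and retained radioactivity scintillation-counted. Agonist activity calculated by formula.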

SMILES: COc1cc2c(cn1)C(=O)N(CCN1CCN(c3nsc4ccccc34)CC1)CC2 [Example 2, 2-{2-[4-(1,2-Benzoisothiazol-3-yl)piperazin-1-yl]ethyl}-6-methoxy-3,4-dihydro-2,7-naphthyridin-1(2H)-one]
- Kp, uu, brain [1]: 1.27
- Ki [2]: 0.03 nM
- IC50 [3]: 2500 nM
- Metabolic stability in human hepatic microsome [4]: 0.22 mL/min/mg protein
- Ki [5]: 128 nM
- EC50 ([6]; [35S]GTPγS binding, concentration at which half the activity of Emax was obtained): 0.18 nM
- Emax at 10 µM ([6]; agonist activity in the presence of 10 μM of compound, relative to 100 μmol/L 5-HT): 69%
